In patent US8147880B2, “Polyacetylenic compounds for stimulating insulin gene exression, production and secretion” (Academia Sinica, priority 2007, dated 2012):

Experiments:
[1] = test system: RIN-m5F cells; test: Cytopiloyne-induced insulin secretion after pre-treatment with channel modulators / calcium chelator; format: cell-based, rat; details: then cytopiloyne 5 μg/ml for 10 min
Protocol: RIN-[…] cells were pre-treated with vehicle, diazoxide (100 μM), EGTA (10 μM), or nimodipine (1 μM) for 30 minutes. They were then incubated with cytopiloyne at 5 μg/ml for 10 min. Insulin levels in the cell medium were determined using an insulin Elisa kit.

[2] = test system: db/db mice; test: Intraperitoneal glucose tolerance test in diabetic db/db mice after oral administration; format: in vivo; details: db/db mice fasted 12 hours, glucose 0.5 g/kg i.p. half an hour later, vs PBS
Protocol: The db/db mice were purchased from Jackson Laboratory, and then maintained and handled according to the guidelines of Academia Sinica Institutional Animal Care and Utilization Committee (Taiwan). Glibenclamide was purchased from MP Biomedical Inc.
Diabetic db/db mice aged 7-8 weeks were fasted for 12 hours (water allowed) and orally administered with PBS, cytopiloyne at 0.5 mg/kg or Glimepiride at 2.5 mg/kg. Half an hour later, the mice were intraperitoneally injected with glucose at 0.5 g/kg body weight. Blood glucose levels were monitored at 0, 0.5, 1, 1.5, 2 and 3 hours using Elite glucometer.

[3] = test system: RIN-m5F cells; test: Insulin secretion into cell medium (insulin Elisa kit); format: cell-based, rat; details: 2.5, 10, and 15 μg/mL for 24 hours
Protocol: RIN-m5F cells, a rat β cell line, were obtained from the American Type Culture Collection (ATCC). Glucose-free RPMI medium was purchased from Life Technology. The cells were grown in a glucose-free RPMI 1640 medium supplemented with 10% FCS, penicillin (100 U/ml), streptomycin (100 μg/ml), 2-mercapoethanol (50 μM), sodium pyruvate (1 mM), and glutamate (292 μg/ml).
The cells were separately incubated with vehicle, glucose at a high dose (16.7 mM), glucose at a low dose (3.6 mM), and cytopiloyne at 2.5, 10, and 15 μg/mL for 24 hours. Insulin levels in the cell medium were determined using an insulin Elisa kit (Mercodia, Uppsala, Sweden).

[4] = test system: Primary β cells from mice; test: Insulin levels (intracellular anti-insulin staining, Elisa) in primary β cells; format: cell-based; details: mouse primary β cells; 2.5, 5, or 10 μg/ml for 24 hours; vs vehicle
Protocol: (§1) Primary β cells from mice were seeded in 9-cm^2 plates in a glucose-free RPMI 1640 medium. Both mouse primary β cells and RIN-m5F cells were treated with vehicle or cytopiloyne at 2.5, 5, or 10 μg/ml for 24 hours. The treated cells were subsequently subjected to intracellular staining with anti-insulin antibody (H86, Santa Cruz Biotechnology, CA, USA) and FITC-conjugated anti-rabbit antiserum (BD Biosciences, CA, USA) according to the manufacturer's instruction. The insulin levels in the cell media were determined using an insulin Elisa kit.

[5] = test system: db/db mice; test: Blood glucose levels in fasted diabetic db/db mice after intraperitoneal injection; format: in vivo; details: db/db mice 7-8 weeks old, fasted 12 hours; 25 μg/kg intraperitoneally; at two hours; vs PBS
Protocol: The db/db mice were purchased from Jackson Laboratory (Bar Harbor, Me., U.S.A.), and then maintained and handled according to the guidelines of Academia Sinica Institutional Animal Care and Utilization Committee (Taiwan).
Diabetic db/db mice of 7-8 weeks old were fasted for 12 hours (water allowed), and then intraperitoneally injected with phosphate-buffered saline (PBS) or cytopiloyne at 25 μg/kg, blood glucose levels in the mice were monitored at 0, 1, 2, 4, and 6 hours using Elite glucometer.

[6] = test system: RIN-m5F cells; test: Insulin levels (intracellular anti-insulin staining, Elisa) in RIN-m5F cells; format: cell-based, rat; details: 2.5, 5, or 10 μg/ml for 24 hours, vs vehicle
Protocol: as §1

[7] = test system: human insulin promoter; test: Insulin promoter luciferase reporter (pINS-Luc / pRL-TK) in transfected RIN-m5F cells; format: cell-based; details: 2.5, 10, or 15 μg/ml for 24 hours
Protocol: The pINS-DCR3 vector containing a human insulin promoter was digested by SphI and BamHI and then cloned into a pcDNAΔCMVlue vector to generate the plasmid pINS-Luc. The plasmid pRL-TK containing a thymidine kinase promoter and a Renilla luciferase reporter gene was purchased from Promega.
RIN-m5F cells transfected with pINS-Luc and pRL-TK plasmids were incubated with vehicle, high glucose (16.7 mM), or cytopiloyne at 2.5, 10, or 15 μg/ml for 24 hours.

O=C(O)CN(CCOCCOCCN(CC(=O)O)CC(=O)O)CC(=O)O [EGTA]
effect on cytopiloyne-mediated insulin secretion ([1]; pre-treatment 10 μM for 30 minutes): suppressed cytopiloyne-mediated insulin secretion

CCC1=C(C)CN(C(=O)NCCc2ccc(S(=O)(=O)NC(=O)N[C@H]3CC[C@H](C)CC3)cc2)C1=O [Glimepiride, reference compound]
glucose tolerance ([2]; 2.5 mg/kg orally): improved glucose tolerance

CC#CC#CC#CC#CCCC(CO)OC1OC(CO)C(O)C(O)C1O (stereo not drawn) [cytopiloyne]
insulin secretion [3]: significantly enhanced insulin secretion
insulin levels [4]: elevated insulin levels
blood glucose levels [5]: significantly decreased
insulin levels [6]: elevated insulin levels
glucose tolerance ([2]; 0.5 mg/kg orally): improved glucose tolerance as effectively as Glimepiride
insulin transcription [7]: stimulated insulin transcription in RIN-m5F cells in a dose-dependent manner

CC1=NS(=O)(=O)c2cc(Cl)ccc2N1 [diazoxide]
effect on cytopiloyne-induced insulin secretion ([1]; pre-treatment 100 μM for 30 minutes): suppressed cytopiloyne-induced insulin secretion
